The results in this text go back to patent US20150218212A1, “FLUORINATED EPOXYKETONE-BASED TETRAPEPTIDE COMPOUNDS AND USES THEREOF AS PROTEASOME INHIBITORS” (FLUORINOV PHARMA INC., priority 2012, published 2015).

In one experiment the test system is 786-0. Description: NCI screening panel, 786-0 (Renal Cancer). Type of experiment: cell-based, human. As to the method: (§1) Representative compounds of Formula I were screened using the National Cancer Institute (NCI) screening panel, which consists of a panel of human tumor cell lines, representing leukemia, melanoma, and cancers of the lung, colon, ovary, breast, prostate and renal system.
(§2) After 24 h, two plates of each cell line are fixed in situ with TCA, to represent a measurement of the cell population for each cell line at the time of drug addition (Tz). Experimental drugs are solubilised in dimethyl sulfoxide at 400-fold the desired final maximum test concentration and stored frozen prior to use. At the time of drug addition, an aliquot of frozen concentrate is thawed and diluted to twice the desired final maximum test concentration with complete medium containing 50 μg/mL gentamicin. Additional four, 10-fold or ½ log serial dilutions are made to provide a total of five drug concentrations plus control. Aliquots of 100 μl of these different drug dilutions are added to the appropriate microtiter wells already containing 100 μl of medium, resulting in the required final drug concentrations.
(§3) Following drug addition, the plates are incubated for an additional 48 h at 37° C., 5% CO2, 95% air, and 100% relative humidity. For adherent cells, the assay is terminated by the addition of cold TCA (trichloroacetic acid). Cells are fixed in situ by the gentle addition of 50 μl of cold 50% (w/v) TCA (final concentration, 10% TCA) and incubated for 60 minutes at 4° C. The supernatant is discarded, and the plates are washed five times with tap water and air dried. Sulforhodamine B (SRB) solution (100 μl) at 0.4% (w/v) in 1% acetic acid is added to each well, and plates are incubated for 10 minutes at room temperature. After staining, unbound dye is removed by washing five times with 1% acetic acid and the plates are air dried. Bound stain is subsequently solubilised with 10 mM trizma base, and the absorbance is read on an automated plate reader at a wavelength of 515 nm. For suspension cells, the methodology is the same except that the assay is terminated by fixing settled cells at the bottom of the wells by gently adding 50 μl of 80% TCA (final concentration, 16% TCA). Using the seven absorbance measurements [time zero, (Tz), control growth, (C), and test growth in the presence of drug at the five concentration levels (Ti)], the percentage growth is calculated at each of the drug concentrations levels. Percentage growth inhibition is calculated as: [(Ti−Tz)/(C−Tz)]×100 for concentrations for which Ti>/=Tz and [(Ti−Tz)/Tz]×100 for concentrations for which Ti<Tz.
(§4) Three dose response parameters are calculated for each experimental agent. Growth inhibition of 50% (GI50) is calculated from [(Ti−Tz)/(C−Tz)]×100=50, which is the drug concentration resulting in a 50% reduction in the net protein increase (as measured by SRB staining) in control cells during the drug incubation. The drug concentration resulting in total growth inhibition (TGI) is calculated from Ti=Tz. The LC50 (concentration of drug resulting in a 50% reduction in the measured protein at the end of the drug treatment as compared to that at the beginning) indicating a net loss of cells following treatment is calculated from [(Ti−Tz)/Tz]×100=−50. Values are calculated for each of these three parameters if the level of activity is reached. However, if the effect is not reached or is exceeded, the value for that parameter is expressed as greater or less than the maximum or minimum concentration tested.

For a further experiment, the system named is NCI-H226. Description: NCI screening panel, NCI-H226 (Non-Small Cell Lung Cancer). It counts as cell-based, human. As to the method:
as §1, §2, §3, §4

In another experiment the test system is U251. Put plainly: NCI screening panel, U251 (CNS Cancer). Type of experiment: cell-based, human. As to the method:
as §1, §2, §3, §4

A further experiment deals with KMS-11. Put plainly: Cell viability (MTS) assay, KMS-11. Type of experiment: cell-based. Particulars: Homo sapiens; KMS-11, MTS, 72 hours, mean ± standard deviation. As to the method:
Human multiple myeloma cell lines 8226, H929, JJN3, KMH11, KMS11, KMS18, LP1, MM1S, OPM2 and U266 were grown in Iscove modified Dulbecco's medium (IMDM). Human leukemia cell lines K562, OCI-AML2 and U937 were cultured in RPMI-1640 medium. Primary peripheral blood mononuclear cells were isolated from multiple myeloma patients by Ficoll density gradient centrifugation and bone marrow aspirates were obtained from multiple myeloma patients at the Princess Margaret Cancer Centre of the University Health Network (UHN; Toronto, ON, Canada). Primary cells were cultured in IMDM. The collection and use of human tissue for this study was approved by the UHN institutional ethics review board. All cell culture media were obtained from the Ontario Cancer Institute Tissue Culture Media Facility (Toronto, ON, Canada) and were supplemented with 10% fetal calf serum, […] (Hyclone, Logan, Utah). All cells were grown in a humidified incubator at 37° C. with 5% CO2.
Cellular viability was primarily assessed by 3-(4,5-dimethylthiazol-2-yl)-5-(3-carboxymethoxyphenyl)-2-(4-sulfophenyl)-2H-tetrazolium (MTS) assay according to the manufacturer's instructions (Promega; Madison, Wis.). Cells were first seeded at a density of 10,000 cells per well in tissue culture-treated 96-well plates. Two hours after seeding, cells were treated with compounds for 72 hours at concentrations as indicated. As a control, cells were treated with DMSO alone in every assay plate. Following treatment and the MTS assay, cell viability was independently confirmed by reading the optical density (O.D.) at 490 nm and by exclusion of trypan blue stain (Invitrogen; Burlington, ON, Canada). The viability of primary mononuclear cells was determined by staining with Annexin V.
Table 8 summarizes the data of representative compounds of Formula I for cell viability and CT-L proteasome activity with OCI-AML-2 and KMS-11 cell lines.

In the next experiment the test system is SNB-75. Put plainly: NCI screening panel, SNB-75 (CNS Cancer). Type of experiment: cell-based, human. How it is done: as §1, §2, §3, §4
A further experiment has as its system SNB-19. Description: NCI screening panel, SNB-19 (CNS Cancer). It counts as cell-based, human. How it is done: as §1, §2, §3, §4

Molecules are shown by their SMILES.

As usually defined, the IC50 is the midpoint of a concentration-inhibition curve. Low readings indicate higher potency, high ones lower potency. Consider `CC(C)C[C@H](NC(=O)[C@H](Cc1ccccc1)NC(=O)[C@H](COC(F)F)NC(=O)[C@H](COC(F)F)NC(=O)CN1CCOCC1)C(=O)[C@@]1(C)CO1` [Example 11, (2S)-2-[[(2S)-3-(difluoromethoxy)-2-[[(2S)-3-(difluoromethoxy)-2-[(2-morpholinoacetyl)-amino]propanoyl]amino]propanoyl]amino]-N-[(1S)-3-methyl-1-[(2R)-2-methyloxirane-2-carbonyl]butyl]-3-phenyl-propanamide], for which the Log10GI50 in the experiment on 786-0 is recorded as −6.66; in the experiment on NCI-H226 it was −7.77; in the experiment on U251, −7.59; with SNB-75, −7.62; in the experiment with SNB-19, −7.20. Moreover, the Log10LC50 is above −4.00 in the experiment on 786-0; −7.11 with NCI-H226; −4.04 in the experiment with U251; above −4.00 in the experiment on SNB-75; above −4.00 in the experiment with SNB-19. In addition, the Log10TGI50 in the experiment on 786-0 is reported as −5.63; in the experiment with NCI-H226, −7.44; in the experiment on U251 it was −6.71; in the experiment on SNB-75, −7.15; in the experiment with SNB-19, above −4.00. In the experiment on KMS-11, this compound came in with an IC50 of 24.3 ± 0.568 nM.

With `CC(C)C[C@H](NC(=O)[C@H](COC(F)F)NC(=O)[C@H](COC(F)F)NC(=O)[C@H](COC(F)F)NC(=O)CN1CCOCC1)C(=O)[C@@]1(C)CO1` [Example 17, (2S)-3-(difluoromethoxy)-N-[(1S)-1-(difluoromethoxymethyl)-2-[[(1S)-1-(difluoro-methoxymethyl)-2-[[(1S)-3-methyl-1-[(2R)-2-methyloxirane-2-carbonyl]butyl]amino]-2-oxo-ethyl]amino]-2-oxo-ethyl]-2-[(2-mor-pholinoacetyl)amino]-propanamide], the Log10GI50 in the experiment on 786-0 is given as −5.99; with NCI-H226, −7.15; with U251 it was −7.26; with SNB-75 it was −7.15; in the experiment on SNB-19, −7.16. The Log10LC50 is recorded as above −4.00 in the experiment on 786-0; −6.14 with NCI-H226; −5.25 in the experiment on U251; above −4.00 with SNB-75; above −4.00 with SNB-19. The Log10TGI50 in the experiment with 786-0 is −4.92; in the experiment on NCI-H226 it was −6.61; with U251 it was −6.32; in the experiment with SNB-75, −6.39; with SNB-19, −4.67. For the same compound, the midpoint of inhibition with KMS-11, the IC50, lay at 166 ± 13.4 nM.
